The record followed here is PubChem BioAssay (NCI).

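Step 1: Grow cells in 96-well plates. Step 2: Expose to compound for 48 hours at 5 concentrations. Step 3: Interpolate endpoints linearly; if unreached, use highest concentration. Abbreviation: GI50, concentration required for 50% inhibition of growth. TGI denotes the concentration required for complete inhibition of growth.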 A value given as a limit tells only on which side of the number the result lay.

Some test systems named below: HCT-116 colon; HT29 colon; KM20L2 colon; OVCAR-3 ovarian; SF-295 CNS; SK-MEL-5 melanoma; SK-OV-3 ovarian; SR leukemia.
Experiment in all cases: NCI anticancer screen, dose series, 48 h

As to `CCC12CCC[C@@]13C=C[C@H](O3)C(C)(C)C2=O` (stereo partly specified), the TGI in the assay with HCT-116 colon, in the assay on HT29 colon, in the assay on KM20L2 colon, in the assay with OVCAR-3 ovarian, in the assay on SF-295 CNS and in the assay with SK-MEL-5 melanoma was greater than 100 µM throughout. In addition, the TGI with SK-OV-3 ovarian and in the assay on SR leukemia was greater than 100 µM in each case.
Consider `COc1ccc(/C(C=O)=C(\Cl)c2ccc(OC)c(OC)c2)cc1`, for which the TGI with HCT-116 colon, with HT29 colon, with KM20L2 colon, in the assay with OVCAR-3 ovarian, in the assay on SF-295 CNS and in the assay on SK-MEL-5 melanoma was greater than 100 µM each time. Moreover, the TGI in the assay on SK-OV-3 ovarian was greater than 100 µM; with SR leukemia, 31.7 µM.
With `CC1CC(c2ccccc2)=Nc2ccccc2S1` (stereo unspecified), the TGI in the assay with HCT-116 colon, with HT29 colon, with KM20L2 colon, in the assay with SF-295 CNS, in the assay with SK-MEL-5 melanoma and in the assay on SK-OV-3 ovarian was greater than 100 µM each time. Also, in the assay with SR leukemia, the TGI is greater than 100 µM.
For `COc1c(OC2OC(CO)C(O)C(O)C2O)cc2c(c1OC)-c1ccc(OC)c(=O)cc1C(NC(C)=O)CC2` (stereo unspecified), the TGI in the assay on HCT-116 colon, with HT29 colon, with KM20L2 colon, in the assay on OVCAR-3 ovarian, with SF-295 CNS and with SK-MEL-5 melanoma was greater than 100 µM each time. The TGI in the assay with SK-OV-3 ovarian and in the assay with SR leukemia was greater than 100 µM in each case.
For the compound `COc1cccc(/C=N/[N-]C(N)=O)c1[O-].[Cu+2].[OH3+]`, the GI50 with HCT-116 colon is 4.09 µM; with HT29 colon, 9.17 µM; with OVCAR-3 ovarian, 10.4 µM; with SR leukemia, 5.67 µM. Moreover, the TGI in the assay on HCT-116 colon was determined as 15.9 µM; with HT29 colon, 21.3 µM; with KM20L2 colon, 20.6 µM; with OVCAR-3 ovarian it was 22.8 µM; in the assay with SF-295 CNS, 28.9 µM; in the assay with SR leukemia, 43.9 µM.
`C/C(CCN(C)C)=N/O`: the TGI in the assay on HCT-116 colon was 12.5 µM; in the assay with HT29 colon, 10.3 µM; with KM20L2 colon, 22.8 µM; in the assay with OVCAR-3 ovarian, 2.04 µM; with SF-295 CNS, 81.5 µM; in the assay with SK-MEL-5 melanoma, 24.3 µM. Moreover, the TGI in the assay on SK-OV-3 ovarian came to 54.1 µM; with SR leukemia it was 5.67 µM.
Take `CN1C(c2ccccc2)CC(O)CC1c1ccccc1` (stereo unspecified): the TGI with HCT-116 colon, in the assay with HT29 colon, in the assay on KM20L2 colon, in the assay on OVCAR-3 ovarian, with SF-295 CNS and in the assay on SK-MEL-5 melanoma was greater than 100 µM in each case. Also, the TGI with SK-OV-3 ovarian and in the assay with SR leukemia was greater than 100 µM in each case.
For `O=C(O)C1CCC(=O)N1C(=O)COc1cc(Cl)c(Cl)cc1Cl` (stereo unspecified), the TGI with HCT-116 colon, in the assay with HT29 colon, with KM20L2 colon, in the assay with OVCAR-3 ovarian, in the assay on SF-295 CNS and with SK-MEL-5 melanoma was greater than 100 µM in each case. Moreover, in the assay on SK-OV-3 ovarian, the TGI is greater than 100 µM.
`COCOC1CCCC[C@@]1(OCCOCCO[C@@]1(c2ccccc2)CCCC[C@H]1OCOC)c1ccccc1` (stereo partly specified): the TGI with HCT-116 colon, in the assay with HT29 colon, in the assay with KM20L2 colon, with OVCAR-3 ovarian, in the assay on SF-295 CNS and in the assay on SK-OV-3 ovarian was greater than 100 µM in each case. Also, in the assay on SR leukemia, the TGI is greater than 100 µM.
